This is an account of results in patent US20060052346A1, “Nucleoside phosphonate derivatives useful in the treatment of HIV infections” (priority 2004, published 2006).

Where two headings read alike, the source gives them in different places. Some results are limits rather than exact numbers.

For the assay, the system named is HIV-1 (NL4-3). Kind of assay: Plaque reduction assay (drug susceptibility) in HT4-6C cells infected with HIV-1 NL4-3. The assay is classed as cell-based. The following applies: for IC50: Human immunodeficiency virus 1, NL43, 72 h. From the text: Measurement of Inhibition Effect Against Human Immunodeficiency Virus (HIV)
The compounds of formula 1 protect cells from the cytopathic effects of HIV infection.
Cells. The T-lymphoblastoid cell line CEM was used in this study to propagate HIV. The cells were maintained in RPMI 1640 growth medium supplemented with 10% fetal bovine serum plus antibiotics. The CD4-expressing cell line used for HIV plaque assays, HT4-6C, was made by transforming HeLa cells with the human CD4 gene as described in Chesebro and Wehrly, J. Virology, 62(10), 3779-3788 (1988). These cells were grown in Dulbecco modified eagle medium (DMEM) containing 10% fetal bovine serum plus antibiotics.
Virus propagation. The laboratory strain of HIV-1 (NL4-3) was grown in CEM cells. Virus stocks were prepared from cleared lysates of concentrated infected cells. At peak cytopathic effect (generally 5 days post-infection) culture supernatants were harvested and stored at −80° C. Viral infectivity titers were determined in threefold endpoint dilution assays conducted in CEM cells (six wells per dilution). The 50% tissue culture infective dose (TCID50) was calculated using the Reed and Muench equation.
Plaque titration using HT4-6C. Cells are seeded into 24-well multiwells at 5×10^4 cells per well and incubated overnight at 37° C. in growth medium (DMEM containing 10% fetal bovine serum plus antibiotics). Monolayers were infected with 10-fold dilutions of cell-free NL4-3 virus in 0.2 ml of DMEM and were incubated for 1 h at 37° C. to allow virus adsorption. Following this, 0.8 ml of DMEM containing 5% fetal bovine serum plus antibiotics was added to each well, and the cultures were incubated at 37° C. for 2 to 3 days. The monolayers were fixed with a 10% formaldehyde solution in phosphate-buffered saline and stained with 0.25% crystal violet in order to visualize virus plaques. Individual foci of multinucleated giant cells (plaques) are obvious when this staining procedure was used. Virus titers were evaluated from plaque numbers and were expressed as PFU per milliliter.
Drug susceptibility assays. Plaque reduction assays were performed by infecting monolayers of HT4-6C cells with 100 to 300 PFU of virus per well in 24-well microdilution plates as described above. Half-log concentrations of inhibitor were added to the culture medium (DMEM containing 5% fetal bovine serum plus antibiotics), and cultures were incubated for 3 days at 37° C. prior to fixation and staining as described above. ID50s were derived from plots of percentage of plaque reduction versus inhibitor concentration. See Larder et al., Antimicrob Agents Chemother, 34(3), 436-41 (March 1990).
(Plaque reduction counts the foci of infection that form in a cell layer.)

The mark [1] stands for this setting: plaque reduction, HT4-6C cell monolayers, 100 to 300 PFU of virus per well, 3 days at 37° C., read-out: ID50 (the source's name).
Where [2] appears, read: plaque reduction, HT4-6C cell monolayers, 100 to 300 PFU of virus per well, 3 days at 37° C.

With `Nc1nc(O)c2ncn(CC3(OCP(=O)(O)O)CC3)c2n1` [Compound 5, ({1-[(2-amino-6-hydroxy-9H-purin-9-yl)methyl]cyclopropyl}oxy)methylphosphonic acid], the IC50 under setting [1] is ~100 µM. The “ID25” value under setting [2] was <10 µM.

`CC(C)(C)C(=O)OCOP(=O)(COC1(Cn2cnc3cnc(N)nc32)CC1)OCOC(=O)C(C)(C)C` [Compound 10, 3-[({1-[(2-amino-9H-purin-9-yl)methyl]cyclopropyl}oxy)methyl]-8,8-dimethyl-3,7-dioxo-2,4,6-trioxa-3λ^5-phosphanon-1-yl pivalate]: for the setting “read-out: ID50 (μM)”, the IC50 is < 10 µM. Moreover, under setting [2], the “ID25” value is <0.1 µM.

With `CC1CC1(Cn1cnc2cnc(N)nc21)OCP(=O)(O)O` (centres unmarked) [Compound 98, ({1-[(2-amino-9H-purin-9-yl)methyl]-2-methylcyclopropyl}oxy)methylphosphonic acid], the IC50 under setting [1] was > 100 µM. Besides, under setting [2], the “ID25” value is <200 µM.

Turning to `CC1CC1(Cn1cnc2cnc(N)nc21)OCP(=O)(OCOC(=O)C(C)(C)C)OCOC(=O)C(C)(C)C` (centres unmarked) [Compound 106, 3-[({1-[(2-amino-9H-purin-9-yl)methyl]-2-methylcyclopropyl}oxy)methyl]-8,8-dimethyl-3,7-dioxo-2,4,6-trioxa-3λ^5-phosphanon-1-yl pivalate], under setting [1], the IC50 was < 100 µM. Under setting [2], the “ID25” value is <1.0 µM.

`CC1CC1(Cn1cnc2c(N)ncnc21)OCP(=O)(O)O` (centres unmarked) [Compound 103, ({1-[(6-amino-9H-purin-9-yl)methyl]-2-methylcyclopropyl}oxy)methylphosphonic acid]: under setting [1], the IC50 was > 100 µM. In addition, the “ID25” value under setting [2] is <10 µM.

Regarding `CC(C)(C)C(=O)OCOP(=O)(COC1(Cn2cnc3c(O)nc(N)nc32)CC1)OCOC(=O)C(C)(C)C` [Compound 6, 3-[({1-[(2-amino-6-hydroxy-9H-purin-9-yl)methyl]cyclopropyl}oxy)methyl]-8,8-dimethyl-3,7-dioxo-2,4,6-trioxa-3λ^5-phosphanon-1-yl pivalate], the IC50 under setting [1] is < 10 µM. In addition, the “ID25” value under setting [2] was <0.1 µM.

Regarding `Nc1ncc2ncn(CC3(OCP(=O)(O)O)CC3)c2n1` [Compound 9, ({1-[(2-amino-9H-purin-9-yl)methyl]cyclopropyl}oxy)methylphosphonic acid], the IC50 under setting [1] is > 100 µM. In addition, the “ID25” value under setting [2] is <10 µM.
